In publication PMC11620517, “Novel hydrazone compounds with broad-spectrum antiplasmodial activity and synergistic interactions with antimalarial drugs” (Antimicrobial Agents and Chemotherapy, 2024):
Several values for one entry are separate records, joined by “and”; a condition that tells them apart may be missing. Equal values may be shown once. Read-outs that look alike come from different tables or passages of the source.

Legend:
[1] = system: P. falciparum oocyst formation in Anopheles stephensi mosquitoes; assay: P. falciparum oocyst inhibition assay (SMFA); format: in vivo, Plasmodium falciparum; settings: for Mean oocyst # excluding zeros (Range): P. falciparum midgut infection in An. stephensi mosquitoes; for Median (oocysts) / Median I % / Prevalence % / Prevalence I %: pooled from two representative experiments; for oocyst formation inhibition: 1 to 10 µM, midguts dissected 8 days after feeding
Method: As previously described, P. falciparum infections were performed using SMFA with NF54 gametocyte cultures diluted to 0.3% stage V gametocytemia ([62]). Infected blood (O+ human 45% hematocrit in serum) was offered to mosquitoes for 30 minutes, and engorged mosquitoes were maintained on a 10% corn syrup solution supplemented by four concentrations of CB compounds (1, 2.5, 5, and 10 µM) at […] ([63]), with DMSO serving as a control. Eight days post-infection, mosquito midguts were dissected and stained with 0.2% mercurochrome for 30 minutes, and oocysts were quantified under a light microscope ([63]).

P. falciparum D6 = assay: Malaria SYBR Green I-Based Fluorescence (MSF) assay, blood stages; format: cell-based; settings: Plasmodium falciparum, D6; blood stages, 72 hours, drug-sensitive strain; read-out: IC50 (µM) (±SD) for strain: D6
Method: (§1) MSF assays were performed in vitro with four P. falciparum strains: D6 (drug sensitive), TM91-C235 (multidrug resistant), W2 (CQ resistant), and C2B (multidrug resistant against ATQ). Parasite strains were kept continuously in long-term cultures as described ([22]). Pre-dosed 384-well plates containing […] serial dilutions of CB compounds (0.0098–20 µM) were prepared using the Tecan Freedom Evo liquid handling system (Tecan USA, Inc., Durham, NC, USA) and were stored at 4°C. A CQ control plate (2,000 ng/mL) was included in each run. Based on modifications of previous methods ([17], [55]), late-ring or early-trophozoite stages were cultured in pre-dosed plates with 0.3% parasitemia and 2% hematocrit. Cultures were incubated for 72 hours at 37°C in a controlled atmosphere of 5% CO2, 5% O2, and 90% N2. Lysis buffer, consisting of 20 mM Tris HCl, 5 mM EDTA, 1.6% Triton X, 0.016% saponin, and SYBR Green I dye at a 20X concentration (Invitrogen #S-7567), was added to the plates for a final 10X SYBR Green concentration. Plates containing cell culture media and lysis buffer were incubated in the dark at 25°C for 24 hours, and the relative fluorescence units (RFU) were measured using the Tecan Genios Plus (Tecan USA, Inc.).

P. falciparum W2 = assay: as above; format: cell-based; settings: Plasmodium falciparum, W2; blood stages, 72 hours, CQ resistant strain; read-out: IC50 (µM) (±SD) for strain: W2
Method: as §1

P. falciparum TM91c235 = assay: as above; format: cell-based; settings: Plasmodium falciparum; blood stages, 72 hours, multidrug resistant strain; read-out: IC50 (µM) (±SD) for strain: TM91c235
Method: as §1

P. falciparum C2B = assay: as above; format: cell-based; settings: Plasmodium falciparum, 72 h, read-out: IC50 (µM) (±SD) for strain: C2B
Method: as §1

[2] = 1 μM compound, infection prevalence in mosquitoes
[3] = 1 μM, single experiments, read-out: % inhibition (mean)
[4] = 2.5 μM compound, infection prevalence in mosquitoes
[5] = 2.5 μM, single experiments, read-out: % inhibition (mean)
[6] = 5 μM compound, infection prevalence in mosquitoes
[7] = 5 μM, single experiments, read-out: % inhibition (mean)
[8] = 10 μM compound, infection prevalence in mosquitoes
[9] = 10 μM compound, oocyst number vs DMSO control, read-out: % inhibition (mean)
[10] = 10 μM compound, oocyst number vs DMSO control, read-out: % inhibition (median)
[11] = 10 μM compound, vs DMSO control, read-out: % inhibition (prevalence)
[12] = 1 μM, single experiments, read-out: % inhibition (median)
[13] = 5 μM, single experiments, read-out: % inhibition (median)
[14] = 10 μM, single experiments, read-out: % inhibition (mean)

O=C(NN=Cc1ccccc1O)c1cc(-c2ccccc2)nc2ccccc12 [CB-53]
Median oocyst # ([1]; 1 μM compound): 1 | Mean oocyst # excluding zeros (Range) ([1]; 1 μM compound): 36 (0-125) | Prevalence [1, 2]: 59 | inhibition at 1 µM ([1]; 1 μM compound, oocyst number vs DMSO control, read-out: % inhibition (mean)): 5% | inhibition at 1 µM ([1]; 1 μM compound, oocyst number vs DMSO control, read-out: % inhibition (median)): 83% | inhibition at 1 µM ([1]; 1 μM compound, vs DMSO control, read-out: % inhibition (prevalence)): 32% | Median (oocysts) ([1]; 1 µM): 1 | Median I % ([1]; 1 µM): 83% | Prevalence % ([1]; 1 µM): 59% | Prevalence I % ([1]; 1 µM): 32% | inhibition at 1 µM [1, 3]: 36% | Median oocyst # ([1]; 2.5 μM compound): 1 | Mean oocyst # excluding zeros (Range) ([1]; 2.5 μM compound): 29 (0-115) | Prevalence [1, 4]: 60 | inhibition at 2.5 µM ([1]; 2.5 μM compound, oocyst number vs DMSO control, read-out: % inhibition (mean)): 22% | inhibition at 2.5 µM ([1]; 2.5 μM compound, oocyst number vs DMSO control, read-out: % inhibition (median)): 83% | inhibition at 2.5 µM ([1]; 2.5 μM compound, vs DMSO control, read-out: % inhibition (prevalence)): 31% | Median (oocysts) ([1]; 2.5 µM): 1 | Median I % ([1]; 2.5 µM): 83% | Prevalence % ([1]; 2.5 µM): 60% | Prevalence I % ([1]; 2.5 µM): 31% | Prevalence ([1]; 2.5 μM, single experiments): 67 and 91 and 47 and 70 | inhibition at 2.5 µM [1, 5]: 37% | Median oocyst # ([1]; 5 μM compound): 0 | Mean oocyst # excluding zeros (Range) ([1]; 5 μM compound): 26 (0-83) | Prevalence [1, 6]: 48 | inhibition at 5 µM ([1]; 5 μM compound, oocyst number vs DMSO control, read-out: % inhibition (mean)): 44% | inhibition at 5 µM ([1]; 5 μM compound, vs DMSO control, read-out: % inhibition (prevalence)): 44% | Median (oocysts) ([1]; 5 µM): 0 | Median I % ([1]; 5 µM): 100% | Prevalence % ([1]; 5 µM): 48% | Prevalence I % ([1]; 5 µM): 44% | % inhibition (mean) ([1]; 5 μM, single experiments): 23% | inhibition at 5 µM [1, 7]: 24% | Median oocyst # ([1]; 10 μM compound): 1 | Mean oocyst # excluding zeros (Range) ([1]; 10 μM compound): 28 (0-129) | Prevalence [1, 8]: 58 | inhibition at 10 µM [1, 9]: 28% | inhibition at 10 µM [1, 10]: 83% | inhibition at 10 µM [1, 11]: 33% | Median (oocysts) ([1]; 10 µM): 1 | Median I % ([1]; 10 µM): 83% | Prevalence % ([1]; 10 µM): 58% | Prevalence I % ([1]; 10 µM): 33% | oocyst formation inhibition [1]: inhibit the development of oocysts | IC50 (P. falciparum D6): > 20 µM | IC50 (P. falciparum W2): > 20 µM | IC50 (P. falciparum TM91c235): 13.9 µM | IC50 (P. falciparum C2B): > 20 µM

COc1cccc(/C=N/NC(=O)c2cc(-c3ccccc3)nc3ccccc23)c1O [CB-58]
Median oocyst # ([1]; 1 μM compound): 6 | Mean oocyst # excluding zeros (Range) ([1]; 1 μM compound): 19 (0-95) | Prevalence [1, 2]: 76 | Median (oocysts) ([1]; 1 µM): 6 | Prevalence % ([1]; 1 µM): 75% | % inhibition (prevalence) ([1]; 1 μM, single experiments): 1% | Prevalence ([1]; 1 μM, single experiments): 69 and 82 and 83 | inhibition at 1 µM [1, 3]: 5% | inhibition at 1 µM [1, 12]: 23% | Median oocyst # ([1]; 2.5 μM compound): 7 | Mean oocyst # excluding zeros (Range) ([1]; 2.5 μM compound): 26 (0-103) | Prevalence [1, 4]: 72 | Median (oocysts) ([1]; 2.5 µM): 7 | Prevalence % ([1]; 2.5 µM): 72% | % inhibition (prevalence) ([1]; 2.5 μM, single experiments): 1% | Prevalence ([1]; 2.5 μM, single experiments): 66 and 79 and 87 | Median oocyst # ([1]; 5 μM compound): 6 | Mean oocyst # excluding zeros (Range) ([1]; 5 μM compound): 14 (0-70) | Prevalence [1, 6]: 87 | Median (oocysts) ([1]; 5 µM): 6 | Prevalence % ([1]; 5 µM): 87% | Prevalence ([1]; 5 μM, single experiments): 96 and 83 and 69 | inhibition at 5 µM [1, 7]: 10% | inhibition at 5 µM [1, 13]: 26% | Median oocyst # ([1]; 10 μM compound): 3 | Mean oocyst # excluding zeros (Range) ([1]; 10 μM compound): 17 (0-93) | Prevalence [1, 8]: 57 | inhibition at 10 µM [1, 9]: 10% | inhibition at 10 µM [1, 10]: 50% | inhibition at 10 µM [1, 11]: 19% | Median (oocysts) ([1]; 10 µM): 3 | Median I % ([1]; 10 µM): 50% | Prevalence % ([1]; 10 µM): 57% | Prevalence I % ([1]; 10 µM): 19% | % inhibition (prevalence) ([1]; 10 μM, single experiments): 15% | inhibition at 10 µM [1, 14]: 30% | inhibition at 10 µM ([1]; 10 μM, single experiments, read-out: % inhibition (prevalence)): 30% | oocyst formation inhibition [1]: did not inhibit oocyst formation | IC50 (P. falciparum D6): 8.44 µM | IC50 (P. falciparum W2): 5.63 µM | IC50 (P. falciparum TM91c235): 10.6 µM | IC50 (P. falciparum C2B): 8.83 µM

O=C(N/N=C/c1cc(Br)ccc1O)/C(=C/C=C/c1ccccc1)NC(=O)c1ccccc1 [CB-50]
Median oocyst # ([1]; 1 μM compound): 8 | Mean oocyst # excluding zeros (Range) ([1]; 1 μM compound): 18 (0-95) | Prevalence [1, 2]: 81 | Median (oocysts) ([1]; 1 µM): 8 | Prevalence % ([1]; 1 µM): 82% | Prevalence ([1]; 1 μM, single experiments): 73 and 91 and 90 | inhibition at 1 µM [1, 3]: 48% | inhibition at 1 µM [1, 12]: 48% | Median oocyst # ([1]; 2.5 μM compound): 9 | Mean oocyst # excluding zeros (Range) ([1]; 2.5 μM compound): 26 (0-103) | Prevalence [1, 4]: 74 | Median (oocysts) ([1]; 2.5 µM): 9 | Prevalence % ([1]; 2.5 µM): 74% | Prevalence ([1]; 2.5 μM, single experiments): 68 and 82 and 83 | inhibition at 2.5 µM [1, 5]: 38% | inhibition at 2.5 µM ([1]; 2.5 μM, single experiments, read-out: % inhibition (median)): 48% | inhibition at 2.5 µM ([1]; 2.5 μM, single experiments, read-out: % inhibition (prevalence)): 5% | Median oocyst # ([1]; 5 μM compound): 7 | Mean oocyst # excluding zeros (Range) ([1]; 5 μM compound): 15 (0-67) | Prevalence [1, 6]: 89 | Median (oocysts) ([1]; 5 µM): 7 | Prevalence % ([1]; 5 µM): 89% | Prevalence ([1]; 5 μM, single experiments): 87 and 90 and 92 | inhibition at 5 µM [1, 7]: 19% | inhibition at 5 µM [1, 13]: 3% | Median oocyst # ([1]; 10 μM compound): 7 | Mean oocyst # excluding zeros (Range) ([1]; 10 μM compound): 18 (0-74) | Prevalence [1, 8]: 74 | Median (oocysts) ([1]; 10 µM): 7 | Prevalence % ([1]; 10 µM): 74% | Prevalence ([1]; 10 μM, single experiments): 65 and 88 and 89 | inhibition at 10 µM [1, 14]: 52% | inhibition at 10 µM ([1]; 10 μM, single experiments, read-out: % inhibition (median)): 61% | oocyst formation inhibition [1]: did not inhibit oocyst formation | IC50 (P. falciparum D6): 1.14 µM | IC50 (P. falciparum W2): 1.15 µM | IC50 (P. falciparum TM91c235): 1.84 µM | IC50 (P. falciparum C2B): 1.89 µM
